Target: T1, VPAC1 (Homo sapiens, UniProt P32241)
T1 construct: expressed in transfected cells; host or cells: CHO
T1 sequence (P32241 31-457): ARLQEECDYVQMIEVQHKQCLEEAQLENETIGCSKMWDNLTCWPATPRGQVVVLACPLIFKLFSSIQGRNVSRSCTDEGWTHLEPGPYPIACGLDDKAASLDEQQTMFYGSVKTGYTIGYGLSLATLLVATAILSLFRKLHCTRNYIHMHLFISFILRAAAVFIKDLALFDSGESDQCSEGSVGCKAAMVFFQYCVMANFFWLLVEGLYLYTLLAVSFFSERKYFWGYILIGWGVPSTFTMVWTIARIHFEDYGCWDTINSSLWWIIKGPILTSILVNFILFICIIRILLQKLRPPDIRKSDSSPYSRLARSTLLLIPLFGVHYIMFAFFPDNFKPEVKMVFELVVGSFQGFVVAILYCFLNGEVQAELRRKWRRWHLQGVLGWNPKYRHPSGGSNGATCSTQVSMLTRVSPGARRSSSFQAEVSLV
Experiment: Elevation of cAMP, agonist activity on VPAC1
Assay type: cell-based
Details: FIG. 3
Text: The signal is detected using a scintillation counter.

**Q.** PACAP-27 was tested. Which “agonist activity on VPAC1” value did it give?
**A.** Its value is “potent agonist”.

From patent US20090143283A1, “Pituitary Adenylate Cyclase Activating Peptide (PACAP) Receptor (VPAC2) Agonists and Their Pharmacological Methods of Use” (Bayer Pharmaceuticals Corporation, priority 2004, published 2009)
